Experiment in all cases: DTP human tumour cell line panel, 48 h
In test [1] the test system is DMS 273 small cell lung.
In test [2] the test system is OVCAR-5 ovarian.
Test [3] relates to XF 498 CNS.
Test [4] relates to HOP-18 NSCLC.
Test [5] has as its system M19-MEL melanoma.
Test [6] relates to DLD-1 colon.
For test [7], the system named is LXFL 529 NSCLC.
The subject of test [8] is DMS 114 small cell lung.
Test [9] deals with KM20L2 colon.
The test system of test [10] is SF-295 CNS.
In test [11] the test system is UACC-257 melanoma.
The subject of test [12] is SNB-78 CNS.
The test system of test [13] is SN12K1 renal.

This is an account of results in PubChem BioAssay (NCI).

As a reminder, the TGI is the concentration giving total growth inhibition. A low value points to more potent growth arrest.

SMILES strings stand for the structures.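 Five concentrations, 48 hours, 96-well plates. Definition used: TGI = concentration required for complete inhibition of growth.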

As for `N#CC(NC12CC3CC(CC(C3)C1)C2)c1ccccc1C(F)(F)F` (stereo unspecified), the TGI in [1], in [2], in test [3], in test [4], in test [5] and in test [6] was more than 100 µM each time. Moreover, the TGI in test [7], in test [8] and in [9] was more than 100 µM throughout.
Consider `CC1NC(=O)CC(c2ccccc2)N(N=O)C1c1ccccc1` (stereo unspecified), for which the TGI in [1] was more than 75.1 µM; in [2] it was more than 100 µM; in test [3] it was 75.3 µM; in [10], more than 100 µM; in test [11], more than 100 µM; in test [4] it was more than 100 µM. The TGI is more than 91.8 µM in test [12]; more than 100 µM in test [5]; more than 100 µM in test [6]; 40 µM in test [9]; 48.3 µM in [13].
On to `O=C1CCC(c2ccc(Cl)cc2)=NN1c1nsc2ccccc12`, for which the TGI in test [1] is 74.5 µM; in test [2], more than 100 µM; in test [11], 68.8 µM; in [4] it was more than 100 µM; in [12], 78.7 µM; in [5], more than 100 µM. The TGI in [7] is 81.4 µM; in test [8], 87.9 µM; in test [9], more than 100 µM.
As for `O=P(Nc1ccc(Cl)cc1)(Oc1ccccc1)N(CCCl)CCCl` (stereo unspecified), the concentration for total growth inhibition (TGI) in [1], in test [2], in test [10], in test [11], in test [4] and in test [12] was more than 100 µM in each case. In addition, the total growth inhibition concentration (TGI) in [5], in [6], in test [7], in test [8] and in test [9] was more than 100 µM throughout.
For `COc1cc(/C=C(\C#N)C(N)=O)cc(Br)c1O`, the TGI in test [1], in test [2], in test [3], in test [10], in test [11] and in [4] was more than 100 µM in each case. Besides, the concentration for total growth inhibition (TGI) in [12], in test [5], in test [6], in [9] and in test [13] was more than 100 µM throughout.
In the case of `C=CCCN1CCc2c([nH]c3ccccc23)C1C(=O)O` (stereo unspecified), the TGI in test [1], in test [2], in test [3], in test [10], in test [11] and in test [12] was more than 100 µM each time. The TGI in [5], in test [6], in test [7], in [8] and in test [9] was more than 100 µM in each case.
Consider `COC1C=CC(O)C(CO)O1` (stereo unspecified), for which the TGI in test [2], in [3], in test [10], in test [11], in test [12] and in test [5] was more than 100 µM in each case. For the same molecule, the concentration for total growth inhibition (TGI) in test [6], in test [7] and in test [9] was more than 100 µM in each case.
On to `NC(N)=N/N=C/c1c[nH]c2ccccc12`, for which the TGI in test [1], in test [2], in test [10], in test [11], in [4] and in test [12] was more than 100 µM each time. The TGI in test [6], in test [7], in test [8] and in test [9] was more than 100 µM in each case.
